Assay results: patent US10377741B2, “Substituted heteroaryl aldehyde compounds and methods for their use in increasing tissue oxygenation” (Global Blood Therapeutics, Inc., priority 2011, dated 2019)

Experiments:
[1] = target: T1, purified Hemoglobin S (HbS) (Homo sapiens, UniProt P68871+P69905, E7V); assay: Modulation of hemoglobin oxygen affinity: oxygen equilibrium curves (HEMOX) in purified HbS; format: biochemical, human (homozygous sickle cell patients); conditions: compound at 30 μM; 25 μM purified HbS, 45 min at 37° C.
T1 construct: HbS was purified by a modified procedure; from tissue; host or cells: blood of homozygous sickle cell patients (CHORI); for the polymerization assay purified by the CRO VIRUSYS
Summary of the method: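 HbS from homozygous sickle cell patient blood, 25 μM in HEMOX buffer pH 7.4, incubated 45 min at 37° C with compound (30 μM unless noted). Air-saturated then deoxygenated with N2; p50 from Hill fit; delta p50% = (control p50 − treated p50)/control p50 × 100.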

HbS/A = target: T2, HbS/A (Homo sapiens, UniProt P68871+P69905, E7V); assay: R/T assay (relaxed-to-tense transition under deoxygenated conditions); format: biochemical, human (homozygous sickle cell patients); conditions: 3 μM HbS/A, % R remaining vs no treatment
T2 construct: A mixture of HbS/A was purified from blood; from tissue; host or cells: blood of homozygous sickle cell patients (CHORI)
Experimental: A relaxed-to-tense transition assay (“R/T assay”) was used to determine the ability of substituted benzaldehyde compounds to maintain the high-oxygen affinity relaxed (R) state of hemoglobin under deoxygenated conditions. This ability can be expressed as a “delta R” value (i.e., the change in the time-period of the R state after hemoglobin is treated with a compound, as compared to the period without treatment with the compound). Delta R is the % R to remaining after the compounds treatment compared with no treatment (e.g. if R % without treatment is 8% while with treatment with a target compound is 48% R at 30 μM, then % R is 40% for that compound.
A mixture of HbS/A was purified from blood obtained from homozygous sickle cell patients though the Hemoglobinopathy Center at Children's Hospital Oakland Research Institute (CHORI) with Institutional Review Board approval. HbS/A (at a final concentration of 3 μM) was incubated for 1 hr at 37° C. in presence or absence of compounds in […] potassium phosphate buffer, pH=7.4 and 30 μM 2, 3 diphosphoglycerate (DPG) in 96 well plates in a final volume of 160 μl. Compounds were added at different concentrations (3 μM to 100 μM final concentrations). Plates were covered with a Mylar film. After incubation was completed the Mylar cover was removed and the plates were placed in a Spectrostar Nano plate reader previously heated at 37° C. Five minutes later, N2 (flow rate=20 L/min) was flowed through the spectrophotometer. Spectroscopic measurements (300 nm to 700 nm) were taken every 5 min for 2 hours. Data analysis was performed by using linear regression from the data retrieved for all wavelengths.
Table 4 below lists the delta R values where + indicates a delta R of between 0 and 30, ++ indicates a delta R of between 30 and 50, and +++ indicates a delta R of 50 or greater. Unless noted otherwise, the compounds in Table 2 were tested at 30 μM.

whole blood = assay: Whole blood assay: oxygen equilibrium curves of whole blood; format: cell-based, human (homozygous sickle cell patients); conditions: compound at 1000 μM; hematocrit 20%, 1 hour at 37° C.
Experimental: Oxygen Equilibrium Curves (OEC) of whole blood before and after treatment with different concentrations of substituted benzaldehyde compounds were performed as follows using a HEMOX analyzer (TCS Scientific, New Hope, Pa.). Blood samples from homozygous sickle cell patients were obtained though the Hemoglobinopathy Center at Children's Hospital Oakland Research Institute (CHORI) with Institutional Review Board approval. The hematocrit was adjusted to 20% using autologous plasma and the blood samples were incubated for 1 hour at 37° C. in absence or presence of compounds. 100 μl of these samples were added to 5 mL of Hemox buffer (30 mM TES, 130 mM NaCl, 5 mM KCl, pH=7.4) at 37° C. and then transferred to the Hemox sample chamber. The samples were saturated with oxygen by flushing with compressed air for 10 minutes. The samples were then flushed with pure nitrogen and the respective absorbances of oxy- and deoxy-Hb are recorded as a function of the solution pO2. The oxygen equilibrium data were then fitted to the Hill Model to obtain values for p50. The deoxygenation curves for both whole blood alone (control) and whole blood in the presence of the compound were collected with the TCS software.
Table 5 below lists the delta p50% values where + indicates a delta p50% of between 0 and 29, ++ indicates a delta p50% of between 30 and 50, and +++ indicates a delta p50% of 50 or greater. Unless noted otherwise, the compounds in Table 2 were tested at 1000 μM.

delta p50% [1] | delta R (HbS/A; compound at 9 μM) | delta R (HbS/A; compound at 30 μM) | SMILES | delta p50% Values for Whole Blood Assay (whole blood)
++ (a delta p50% of between 30 and 50) | +++ (a delta R of 50 or greater) |  | COc1cc(C=O)c(OCc2cnc3ccccc3c2)cn1 [Compound 80, 2-methoxy-5-(quinolin-3-ylmethoxy)isonicotinaldehyde] | + (a delta p50% of between 0 and 29)
++ (a delta p50% of between 30 and 50) | + (a delta R of between 0 and 30) |  | COC(=O)CCn1nccc1-c1ncccc1COc1cnc(OC)cc1C=O [Compound 200, methyl 3-(5-(3-(((4-formyl-6-methoxypyridin-3-yl)oxy)methyl)pyridin-2-yl)-1H-pyrazol-1-yl)propanoate] | +++ (a delta p50% of 50 or greater)
++ (a delta p50% of between 30 and 50) | + (a delta R of between 0 and 30) |  | COc1cc(C=O)c(OCc2cccn3c(C)nnc23)cn1 [Compound 58, 2-methoxy-5-((3-methyl-[1,2,4]triazolo[4,3-a]pyridin-8-yl)methoxy)isonicotinaldehyde] | + (a delta p50% of between 0 and 29)
++ (a delta p50% of between 30 and 50) | + (a delta R of between 0 and 30) |  | COc1cc(C=O)c(OCc2cccnc2-c2nn[nH]n2)cn1 [Compound 131, 5-((2-(2H-tetrazol-5-yl)pyridin-3-yl)methoxy)-2-methoxyisonicotinaldehyde] | + (a delta p50% of between 0 and 29)
++ (a delta p50% of between 30 and 50) | + (a delta R of between 0 and 30) |  | COc1cc(C=O)c(OCc2cccnc2-c2ccn[nH]2)cn1 [Compound 65, 5-((2-(1H-pyrazol-5-yl)pyridin-3-yl)methoxy)-2-methoxyisonicotinaldehyde] | + (a delta p50% of between 0 and 29)
++ (a delta p50% of between 30 and 50) | + (a delta R of between 0 and 30) |  | Cc1ccc(OCc2nccc3ccccc23)c(C=O)n1 [Compound 93, 3-(isoquinolin-1-ylmethoxy)-6-methylpicolinaldehyde] | + (a delta p50% of between 0 and 29)
++ (a delta p50% of between 30 and 50) | ++ (a delta R of between 30 and 50) |  | COc1cc(C=O)c(OCc2cccnc2-c2ccnn2C)cn1 [Compound 129, 2-methoxy-5-((2-(1-methyl-1H-pyrazol-5-yl)pyridin-3-yl)methoxy)isonicotinaldehyde] | ++ (a delta p50% of between 30 and 50)
++ (a delta p50% of between 30 and 50) | + (a delta R of between 0 and 30) |  | COc1cc(C=O)c(OCc2cccnc2-c2ccn(CCC(=O)O)n2)cn1 [Compound 201, 3-(3-(3-((4-formyl-6-methoxypyridin-3-yloxy)methyl)pyridin-2-yl)-1H-pyrazol-1-yl)propanoic acid] | + (a delta p50% of between 0 and 29)
+++ (a delta p50% of 50 or greater) |  | ++ (a delta R of between 30 and 50) | COc1cc(C=O)c(OCc2cccnc2C(C)(C)O)cn1 [Compound 183, 5-((2-(2-hydroxypropan-2-yl)pyridin-3-yl)methoxy)-2-methoxyisonicotinaldehyde] | +++ (a delta p50% of 50 or greater)
+++ (a delta p50% of 50 or greater) |  | ++ (a delta R of between 30 and 50) | COc1cc(C=O)c(OCc2cccnc2-c2ccnn2C2CCCCC2)cn1 [Compound 196, 5-((2-(1-cyclohexyl-1H-pyrazol-5-yl)pyridin-3-yl)methoxy)-2-methoxyisonicotinaldehyde] | ++ (a delta p50% of between 30 and 50)
++ (a delta p50% of between 30 and 50) | + (a delta R of between 0 and 30) |  | COCCOc1cc(C=O)c(OCc2cccn3ccnc23)cn1 [Compound 179, 5-(imidazo[1,2-a]pyridin-8-ylmethoxy)-2-(2-methoxyethoxy) isonicotinaldehyde] | ++ (a delta p50% of between 30 and 50)
++ (a delta p50% of between 30 and 50) | ++ (a delta R of between 30 and 50) |  | COc1cc(C=O)c(OCc2c(-c3ccn[nH]3)ncc3ccccc23)cn1 [Compound 133, 5-((3-(1H-pyrazol-5-yl)isoquinolin-4-yl)methoxy)-2-methoxyisonicotinaldehyde] | + (a delta p50% of between 0 and 29)
++ (a delta p50% of between 30 and 50) | +++ (a delta R of 50 or greater) |  | Cc1ccc(OCc2ccc3c(cnn3C)c2)c(C=O)n1 [Compound 108, 6-methyl-3-((1-methyl-1H-indazol-5-yl)methoxy)picolinaldehyde] | + (a delta p50% of between 0 and 29)
+++ (a delta p50% of 50 or greater) |  | ++ (a delta R of between 30 and 50) | COc1cc(C=O)c(OCc2cccnc2-c2[nH]ncc2C)cn1 [Compound 132, 2-methoxy-5-((2-(4-methyl-1H-pyrazol-5-yl)pyridin-3-yl)methoxy)isonicotinaldehyde] | ++ (a delta p50% of between 30 and 50)
++ (a delta p50% of between 30 and 50) | ++ (a delta R of between 30 and 50) |  | COc1cc(C=O)c(OCc2cccc3ncccc23)cn1 [Compound 120, 2-methoxy-5-(quinolin-5-ylmethoxy)isonicotinaldehyde] | + (a delta p50% of between 0 and 29)
++ (a delta p50% of between 30 and 50) | + (a delta R of between 0 and 30) |  | Cc1cn[nH]c1-c1ncccc1COc1c[nH]c(=O)cc1C=O [Compound 194, 5-((2-(4-methyl-1H-pyrazol-5-yl)pyridin-3-yl)methoxy)-2-oxo-1,2-dihydropyridine-4-carbaldehyde] | + (a delta p50% of between 0 and 29)
++ (a delta p50% of between 30 and 50) |  | ++ (a delta R of between 30 and 50) | COCCOc1cc(C=O)c(OCc2cccnc2-c2ccnn2C)cn1 [Compound 184, 2-(2-methoxyethoxy)-5-((2-(1-methyl-1H-pyrazol-5-yl)pyridin-3-yl)methoxy)isonicotinaldehyde] | +++ (a delta p50% of 50 or greater)
++ (a delta p50% of between 30 and 50) | ++ (a delta R of between 30 and 50) |  | COc1cc(C=O)c(OCc2cccc3ocnc23)cn1 [Compound 103, 5-(benzo[d]oxazol-4-ylmethoxy)-2-methoxyisonicotinaldehyde] | + (a delta p50% of between 0 and 29)
